In US7476767B2, “Alpha-hydroxy sulfonate aldehydes, germicidal compositions containing the alpha-hydroxy sulfonate aldehydes, or mixtures of alpha-hydroxy sulfonate aldehydes and phthalaldehydes, and methods of using the compounds or compositions for disinfection or sterilization” (Ethicon, Inc., priority 2004, dated 2009):

Columns and labels:
[1] = tested on: Mycobacterium terrae bacteria; assay: Bacterial suspension test; assay type: cell-based; conditions: for Log Reductions/mL: 20° C.; for Germicidal Efficacy: Table 14 summary
Method: In this test method, 9 mL of the germicide to be tested is placed in a tube, put into a water bath and allowed to come to the desired temperature. One mL of the test organism, including at least 7 logs/mL of Mycobacterium terrae bacteria, is added to the 9 mL of the germicide to be tested. […] It will be appreciated by those skilled in the art that other concentrations may be utilized by proper dilution and accounting. At appropriate time intervals, 1 mL aliquots of the germicide-cell suspension were removed and added directly into 9 mL of a 1% glycine solution (neutralizer) and mixed thoroughly to neutralize the germicide in the transferred suspension. The glycine solution was prepared from solid glycine, which is available from VWR Scientific Products, among others. The above-identified 10 mL neutralized solution was then poured through a membrane filter having an average pore size of 0.45 micrometers. The filter was then rinsed twice with at least 150 mL of the 1% glycine solution per rinse. The filter was then placed on an agar plate and incubated for twenty-one days at 37° C. In the above procedure, if dilution was needed, then the 1 mL germicidal-cell suspension was diluted in 99 mL of a phosphate buffer before addition to the 9 mL of the 1% glycine solution. The phosphate buffer was DiLu-LoK™ Butterfields Phosphate Buffer, available from Hardy Diagnostics, of Santa Maria, Calif. The surviving colonies are then counted. The data is plotted as S/So vs. time. So is the initial count of the bacteria in the above 10 mL solution which is at least 10^6 bacteria/mL, and S is the surviving bacteria from the above filter on the agar plate. The results of the experiments were presented in terms of log reductions. Log reduction is the difference between log(So) and log(S). As one example, if log(So)=6.2, and if there were 100 survivors, then the log(S)=2, and the log reduction was reported as 4.2.

Solubility in water = assay type: physicochemical

For 4-pyridinyl-propanedial, the “Log Reductions/mL” value ([1]; Saturated (~2.3% w/v), 5 min) was 4.0 log reductions/mL.
In the case of `O=Cc1ccc(Br)cc1C=O` [4-bromo-phthalaldehyde], the “Log Reductions/mL” value ([1]; 0.1%, 30 min exposure) is reported as “Total Kill”.
For `O=Cc1ccc(Cl)cc1C=O` [4-chloro-phthalaldehyde], the “Log Reductions/mL” value ([1]; 2.7 w/v % in 20% isopropanol, 5 min) was “Total Kill”.
With `O=Cc1ccc(F)cc1C=O` [4-fluoro-phthalaldehyde] the “Log Reductions/mL” value ([1]; 0.25%, 60 min exposure) was “Total Kill”.
With `O=Cc1ccccc1C(O)S(=O)(=O)[O-].[Na+]` (centres unmarked) [(2-formyl-phenyl)-hydroxy-methane sulfonic acid,sodium salt] the “Log Reductions/mL” value ([1]; 9.1%, 5 min) was “Confluent”.
With `O=Cc1cccc(C=O)c1` [IPA, isophthalaldehyde] the “Log Reductions/mL” value ([1]; Table 11: 0.3%, dissolved in 20% isopropanol, 5 min) was “Confluent”, the “Germicidal Efficacy” value [1] was “Poor” and the “Log Reductions/mL” value ([1]; Table 15: 0.3%, dissolved in 20% isopropanol, 5 min) was “Confluent”.
For `O=Cc1ccccc1C=O` [OPA, phthalaldehyde], the solubility in water (Solubility in water) was “about 5 % by weight” and the “Germicidal Efficacy” value [1] was “Good”.
With `O=Cc1ccc(C=O)cc1` [TPA, terephthalaldehyde] the “Log Reductions/mL” value ([1]; 0.2%, dissolved in 20% isopropanol, 5 min) was “Confluent” and the “Germicidal Efficacy” value [1] was “Poor”.
With `O=CC(C=O)c1ccccc1` [phenyl-propanedial] the solubility in water (Solubility in water) was “about 1%” and the “Log Reductions/mL” value ([1]; Table 15: ~1%, 5 min) was 4.5 log reductions/mL.
